Experiments:
[1] = system: resistant mutants of HIV-1 (single and double mutants); test: Replication inhibiting activity towards resistant mutants of HIV-1; type: cell-based; settings: single and double mutants of HIV-1
Protocol: Compound X was also tested for its replication inhibiting activity towards resistant mutants of HIV-1 (single and double mutants).

[2] = system: HIV; test: Determination of anti-HIV activity: inhibition of HIV-induced cytopathic effect in MT-4 cells (MTT); type: cell-based, Human Immunodeficiency Virus
Protocol: (§1) A rapid, sensitive and automated assay procedure was used for the in vitro evaluation of anti-HIV agents. An […] T4-cell line, MT-4, which was previously shown (Koyanagi et al., Int. J. Cancer, 36, 445-451, 1985) to be highly susceptible to and permissive for HIV infection, served as the target cell line. Inhibition of the HIV-induced cytopathic effect was used as the end point. The viability of both HIV- and mock-infected cells was assessed spectrophotometrically via the in situ reduction of 3-(4,5-dimethylthiazol-2-yl)-2,5-diphenyltetrazolium bromide (MTT). The 50% cytotoxic concentration (CC50 in M) was defined as the concentration of compound that reduced the absorbance of the mock-infected control sample by 50%. The percent protection achieved by the compound in HIV-infected cells was calculated by the following formula:
(§2) [formula] whereby (ODT)HIV is the optical density measured with a given concentration of the test compound in HIV-infected cells; (ODC)HIV is the optical density measured for the control untreated HIV-infected cells; (ODC)MOCK is the optical density measured for the control untreated mock-infected cells; all optical density values were determined at 540 nm. The dose achieving 50% protection according to the above formula was defined as the 50% inhibitory concentration (IC50 in M). The ratio of CC50 to IC50 was defined as the selectivity index (SI).

[3] = Cytotoxicity in mock-infected MT-4 cells (MTT); type: cell-based; settings: human, OD 540 nm, read-out: CC50 (50% cytotoxic concentration)
Protocol: as §1, §2

Compound: Cc1cc(/C=C/C#N)cc(C)c1Nc1ccnc(Nc2ccc(C#N)cc2)n1 [Compound X, 4-[[4-[[4-(2-cyanoethenyl)-2,6-dimethylphenyl]amino]-2-pyrimidinyl]amino]benzonitrile (E)]
- replication inhibiting activity against resistant strains [1]: high activity
- SI (selectivity index, ratio of CC50 to IC50) [2]: 25,119
- CC50 [3]: 10 µM

— patent US7705148B2, “Processes for the preparation of 4-[[4-[[4-(2-cyanoethenyl)-2,6-dimethylphenyl]amino]-2-pyrimidinyl]amino]benzonitrile” (priority 2008, dated 2010)
